Laboratory results as given in publication PMC11580958 (bioRxiv, 2024).
Residues, ends and D or L forms follow the SMILES beside them. *: point of attachment. Cbz = O=C(OCc1ccccc1)*

Columns and labels:
BMDCs = experiment: […] antigen presentation on DCs; format: cell-based, C57BL/6 mouse; conditions: CpG adjuvant, treatment 12-24 h, flow cytometry
CRBN protein = CRBN protein (Homo sapiens, UniProt Q96SW2); experiment: Nano ITC measurement of PROTAV-CRBN binding; conditions: data did not fit the binding model
Chain of CRBN protein (Q96SW2 whole entry, species assumed): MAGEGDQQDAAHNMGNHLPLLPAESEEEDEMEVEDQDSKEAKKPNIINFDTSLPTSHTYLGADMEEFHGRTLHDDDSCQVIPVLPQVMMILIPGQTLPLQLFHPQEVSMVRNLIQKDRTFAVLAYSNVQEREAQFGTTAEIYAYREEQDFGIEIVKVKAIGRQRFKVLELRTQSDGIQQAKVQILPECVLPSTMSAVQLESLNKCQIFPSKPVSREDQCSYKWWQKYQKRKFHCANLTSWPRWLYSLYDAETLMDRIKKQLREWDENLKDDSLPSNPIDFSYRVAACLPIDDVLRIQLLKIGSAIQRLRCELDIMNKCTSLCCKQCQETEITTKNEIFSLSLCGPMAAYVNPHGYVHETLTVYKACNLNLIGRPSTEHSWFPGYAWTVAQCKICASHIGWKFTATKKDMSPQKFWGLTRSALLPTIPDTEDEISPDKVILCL

Row | Binding to CRBN (in words) (CRBN protein) | Molecule | H-2Kb/SIINFEKL presentation on DCs (in words) (BMDCs)
1 |  | CC(C)C[C@@H](C=O)NC(=O)[C@H](CC(C)C)NC(=O)[C@H](CC(C)C)NC(=O)OCc1ccccc1 [MG132] (Cbz-Leu-Leu-Leu-aldehyde) | reduced the level of SIINFEKL presentation on DCs
2 | negligible binding | chicken ovalbumin (protein) MGSIGAASMEFCFDVFKELKVHHANENIFYCPIAIMSALAMVYLGAKDSTRTQINKVVRFDKLPGFGDSIEAQCGTSVNVHSSLRDILNQITKPNDVYSFSLASRLYAEERYPILPEYLQCVKELYRGGLEPINFQTAADQARELINSWVESQTNGIIRNVLQPSSVDSQTAMVLVNAIVFKGLWEKAFKDEDTQAMPFRVTEQESKPVQMMYQIGLFRVASMASEKMKILELPFASGTMSMLVLLPDEVSGLEQLESIINFEKLTEWTSSNVMEERKIKVYLPRMKMEEKYNLTSVLMAMGITDVFSSSANLSGISSAESLKISQAVHAAHAEINEAGREVVGSAEAGVDAASVSEEFRADHPFLFCIKHIATNAVLFFGRCVSP | 
